Experimental data: DBAASP
≈ marks a conversion by molar mass, not a printed value.

Experiments:
Assay in all cases: ≥ marks a high value that may be exact or a test limit, other limits are often not marked, values filed in µg/mL are converted to µM
[1] = test system: Bacillus subtilis 168
[2] = test system: Escherichia coli DH5alpha
[3] = test system: Salmonella enterica subsp. enterica serovar Typhimurium ATCC 14028
[4] = test system: Klebsiella pneumoniae ATCC 10031
[5] = test system: Escherichia coli ATCC 25922
[6] = test system: Staphylococcus aureus ATCC 25923
[7] = test system: Salmonella enterica subsp. enterica serovar Typhimurium C77-31
[8] = test system: Escherichia coli UB1005
[9] = test system: Staphylococcus aureus ATCC 29213
[10] = test system: Staphylococcus epidermidis ATCC 12228
[11] = test system: Escherichia coli ATCC 25726
[12] = test system: Candida albicans ATCC 90028
[13] = test system: Pseudomonas aeruginosa ATCC 27853
[14] = test system: Staphylococcus aureus ATCC 43300

## CC(C)[C@H](NC(=O)[C@H](CCCCN)NC(=O)[C@H](CCCCN)NC(=O)[C@@H](NC(=O)[C@@H](NC(=O)[C@H](CCCCN)NC(=O)[C@H](CCCCN)NC(=O)[C@@H](NC(=O)[C@@H](NC(=O)[C@H](CCCCN)NC(=O)[C@H](CCCCN)NC(=O)[C@@H](NC(=O)[C@@H](NC(=O)CN)C(C)C)C(C)C)C(C)C)C(C)C)C(C)C)C(C)C)C(N)=O [GVVKKVVKKVVKKV]
[1]
  MIC: ≥ 65 µM
[2]
  MIC: ≥ 125 µM

## CC[C@H](C)[C@@H]1NC(=O)[C@H](CCCCN)NC(=O)[C@@H](NC(=O)[C@@H](NC(=O)[C@@H](NC(=O)[C@@H](NC(=O)[C@@H]2CCCN2C(=O)[C@H](CC(C)C)NC(=O)[C@H](Cc2ccccc2)NC(=O)[C@H](CC(N)=O)NC(=O)[C@H](C)NC(=O)[C@H](C)NC(=O)[C@H](CC(C)C)NC(=O)CNC(=O)[C@H](C)NC(=O)[C@@H](N)Cc2ccccc2)[C@@H](C)O)[C@@H](C)CC)[C@@H](C)CC)CSSC[C@@H](C(=O)O)NC(=O)[C@H](CCCCN)NC(=O)[C@H](Cc2ccc(O)cc2)NC(=O)[C@H](CO)NC1=O [FAGLAANFLPTIICKISYKC]
[3]
  MIC: > 46 µM
[4]
  MIC: ≥ 46 µM
[2]
  MIC: ≥ 46 µM

## CC[C@H](C)[C@H](NC(=O)[C@H](Cc1c[nH]c2ccccc12)NC(=O)[C@H](CCCCN)NC(=O)[C@H](CC(C)C)NC(=O)[C@@H](NC(=O)[C@H](CCCCN)NC(=O)CNC(=O)[C@@H](NC(=O)[C@H](CCCCN)NC(=O)[C@H](CCCCN)NC(=O)[C@H](CC(C)C)NC(=O)[C@@H](NC(=O)[C@H](CCCCN)NC(=O)[C@H](CCCN=C(N)N)NC(=O)[C@@H](NC(=O)[C@@H](NC(=O)[C@H](CCCCN)NC(=O)[C@H](CCCN=C(N)N)NC(=O)[C@H](CC(C)C)NC(=O)[C@H](CCCN=C(N)N)NC(=O)[C@H](CCCN=C(N)N)NC(=O)[C@H](Cc1ccccc1)NC(=O)[C@@H](NC(=O)CN)C(C)C)C(C)C)[C@@H](C)O)C(C)C)[C@@H](C)CC)C(C)C)C(N)=O [GVFRRLRKVTRKVLKKIGKVLKWI]
[5]
  MIC: 4 µM (≈ 11.7 µg/mL)
[6]
  MIC: 4 µM (≈ 11.7 µg/mL)
[7]
  MIC: 4 µM (≈ 11.7 µg/mL)
[8]
  MIC: 4 µM (≈ 11.7 µg/mL)
[9]
  MIC: 4 µM (≈ 11.7 µg/mL)
[10]
  MIC: 2 µM (≈ 5.84 µg/mL)

## CC[C@H](C)[C@H](N)C(=O)N[C@@H](CCCCN)C(=O)N[C@H](C(=O)N1CCC[C@H]1C(=O)N1CCC[C@H]1C(=O)N[C@H](C(=O)N[C@H](C(=O)N[C@@H](CCCCN)C(=O)N[C@@H](CC(=O)O)C(=O)N[C@H](C(=O)N[C@@H](CC(C)C)C(=O)N[C@@H](CCCCN)C(=O)N[C@@H](CCCCN)C(=O)N[C@H](C(=O)N[C@@H](C)C(=O)N[C@@H](CCCCN)C(=O)NCC(=O)N[C@H](C(=O)N[C@@H](CC(C)C)C(=O)N[C@@H](CO)C(=O)N[C@H](C(=O)N[C@H](C(=O)N[C@@H](C)C(=O)NCC(=O)N[C@@H](C)C(=O)N[C@@H](CC(C)C)C(=O)N[C@@H](CO)C(=O)N[C@H](C(=O)O)[C@@H](C)O)[C@@H](C)CC)[C@@H](C)O)C(C)C)C(C)C)[C@@H](C)O)C(C)C)[C@@H](C)CC)[C@@H](C)CC [IKIPPIVKDTLKKVAKGVLSTIAGALST]
[11]
  MIC: ≥ 40 µM
[12]
  MIC: ≥ 160 µM
[6]
  MIC: 80 µM (≈ 229 µg/mL)

## CC[C@H](C)[C@H](N)C(=O)N[C@@H](CCCN=C(N)N)C(=O)N[C@H](C(=O)N[C@@H](CCCN=C(N)N)C(=O)N1CCC[C@H]1C(=O)N[C@H](C(=O)N[C@@H](CCCN=C(N)N)C(=O)N[C@H](C(=O)N[C@@H](CCCN=C(N)N)C(=O)N1CCC[C@H]1C(=O)O)[C@@H](C)CC)[C@@H](C)CC)[C@@H](C)CC [IRIRPIRIRP]
[5]
  MIC: > 128 µM
[3]
  MIC: > 128 µM
[6]
  MIC: > 128 µM
[7]
  MIC: ≥ 128 µM
[8]
  MIC: ≥ 128 µM
[13]
  MIC: > 128 µM
[9]
  MIC: > 128 µM
[10]
  MIC: > 128 µM
[14]
  MIC: > 128 µM

## CC(C)C[C@H](NC(=O)[C@H](CC(C)C)NC(=O)CNC(=O)[C@H](CO)NC(=O)[C@H](CC(C)C)NC(=O)[C@H](CC(C)C)NC(=O)CNC(=O)[C@@H](NC(=O)[C@@H](NC(=O)[C@H](CC(C)C)NC(=O)[C@@H]1CCCN1C(=O)[C@H](CC(C)C)NC(=O)[C@@H](N)Cc1ccccc1)C(C)C)[C@@H](C)O)C(N)=O [FLPLVTGLLSGLL]
[11]
  MIC: ≥ 128 µM
[6]
  MIC: 64 µM (≈ 85.9 µg/mL)
